“Also recorded” adds a separate entry of the source. Like-named read-outs stand apart in the source and are kept apart here.
What was measured:
[1] = tested on: CD8-1 T cell line (CD1c-restricted αβ); assay: CD8-1 T cell line response; type: cell-based, human
[2] = target: CD1b (Homo sapiens, UniProt P29016); assay: Binding of glycolipid to CD1b
Description: Thus, CD1b binds to both natural and synthetic GMM but not to an analog that has only one long alkyl chain instead of two short alkyl chains.

[3] = tested on: LDN5 T cell line (CD1b-restricted); type: cell-based, human
[4] = tested on: APCs; assay: Uptake and processing of CD1b-presented antigens by APCs; type: cell-based
Description: The uptake and processing pathway for CD1b-presented antigens was also defined. Several steps in the presentation of two related classes of CD1b-presented antigens, free and glycosylated mycolates, were examined. […] Thus, larger lipids, such as trehalose dimycolate cannot be broken down into GMM within cells. Given that the hydrophobic groove can accommodate approximately 32 CH2 units when measured in crystalline form, it is likely that the CD1 protein can open to encompass larger alkyl chains or that the chains can protrude from the groove.

[5] = tested on: DN1 T cell line (CD1b-restricted, specific for free mycolic acid); assay: DN1 T cell line response; type: cell-based, human
Description: The role of the carbohydrate moiety of the glycolipid in T cell recognition was separately evaluated.
(§1) LDN5 was derived from the same human leprosy skin lesion that gave rise to the previously described LAM reactive T cell line LDN4 (P. A. Sieling, et al. (1995) Science 269:227). Cultures were stimulated initially with autologous GM-CSF and IL-4 treated CD1^+ monocytes and M. leprae sonicate. After establishment of LDN5, cultures were maintained in IL-2 supplemented medium and periodically stimulated with allogenic CD1^+ APCs and M. phlei sonicate (X/1000) containing GMM. […] T cell culture methods, proliferation assays and cytolysis assays were carried out according to the methods described in E. M. Beckman, et al. (1996) J. Immunol. 157:2795. All bioassays were done in triplicate and reported as mean +/−standard deviation.

[6] = tested on: mock, CD1a or CD1c transfected C1R cells; assay: LDN5 cytolysis assay, control transfectants; type: cell-based, human; details: E:T 25:1; similarly treated with antigen
Description: (§2) There was no response in the absence of antigen.
(§3) Similarly treated mock, CD1a or CD1c transfected cells were not lysed (FIG. 2B). The Na adduct of the fully synthetic GMM containing C32 mycolic acid was detected by ESI-MS analysis to be a single ion peak at m/z 681.6 (FIG. 2C). This synthetic GMM antigen lacks long chain length (compared with C80 mycolic acids of mycobacteria), cyclopropanation, double bonds and R groups, ruling out all of these natural chemical variations of the mycolic acid moiety as necessary antigenic determinants. The discovery of a synthetic CD1-restricted antigen with a simple and well defined structure allowed the systematic study of individual molecular features of the antigen that determined the specificity of the T cell response.
as §1, with “157:2795. All bioassays were done in triplicate and reported as mean +/−standard deviation.” left out

[7] = tested on: CD1b transfected C1R lymphoblastoid target cells; assay: LDN5 cytolysis assay, CD1b transfected targets; type: cell-based, human; details: E:T 25:1; targets cultured with antigen (0.5 mg/ml purified glycolipid; 5 μg/ml synthetic GMM)
Description: as §2, §3
as §1, with “157:2795. All bioassays were done in triplicate and reported as mean +/−standard deviation.” left out

[8] = tested on: 14 other T cell lines including SP-F3 and DN6
[9] = tested on: CD1a, CD1b and MHC class I restricted T cell lines; assay: Stimulation of CD1a, CD1b and MHC class I restricted T cell lines (mitogenicity control); type: cell-based
[10] = tested on: CD1c-restricted T cell lines; assay: Recognition by other CD1c-restricted T cell lines from different donors; type: cell-based, human; details: lines derived from different donors
Description: Based on a survey of known mycobacterial phospholipids, the leading candidate structure for this antigen was that of a glycosyl phosphopolyprenol (GPP). See, Besra, G. S., et al. (1994) Proc. Natl. Acad. Sci. USA 91:12735-12739. The fragmentation pattern was consistent with the identification of the antigenic M. avium as a GPP, presuming that the lipid of m/z 420 was the hexaprenyl component of a fully saturated hexose phosphohexaprenol. To assess this, the ability of the T cell line CD8-1 to recognize purified mycobacterial GPPs was tested. The structure of Myc-PL, a mannosyl phosphopolyprenol esterified to a mycolic acid, had been determined in detail. Besra, G. S., et al. (1994) supra. Pure myc-PL was cleaved with strong base to yield free mycolate and mannosyl phosphoheptaprenol (MPP). Besra, G. S., et al. (1994) supra. […] Rush, J. S., et al.(1993) J. Biol. Chem. 268:13110-13117. […] Thus, these studies established that CD1c-restricted T cells specifically recognized GPPs from four different sources, including both natural and synthetic analogs of this structure.
All three CD1-restricted lines preferentially recognized the α-saturated MPDs typical of eukaryotes more potently than the α-unsaturated GPPs typical of prokaryotes. Krag, S. S. (1998) Biochem. Biophys. Res. Comm. 243:1-5. […]

[11] = cytokine activated macrophages / CD1+ APCs

Chain of CD1b (P61769 21-119): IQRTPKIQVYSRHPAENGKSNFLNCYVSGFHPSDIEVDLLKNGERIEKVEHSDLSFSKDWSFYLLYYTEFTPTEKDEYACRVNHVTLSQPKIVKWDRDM
Chain of CD1b (P29016 18-303): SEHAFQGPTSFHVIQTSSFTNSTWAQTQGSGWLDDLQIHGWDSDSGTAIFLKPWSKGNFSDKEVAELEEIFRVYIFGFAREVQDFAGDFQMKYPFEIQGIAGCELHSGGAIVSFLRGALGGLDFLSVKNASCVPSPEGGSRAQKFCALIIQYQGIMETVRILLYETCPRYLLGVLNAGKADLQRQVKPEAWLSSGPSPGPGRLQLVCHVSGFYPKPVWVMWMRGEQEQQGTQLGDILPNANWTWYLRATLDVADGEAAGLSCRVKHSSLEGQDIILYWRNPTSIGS

In the case of CC(C)=CCCC(C)=CCCC(C)=CCCC(C)=CCCC(C)=CCCC(C)=CCCC(C)=CCOP(=O)(O)O[C@@H]1O[C@H](CO)[C@@H](O)[C@H](O)[C@@H]1O (relative stereo) [semi-synthetic MPP, β-D-mannopyranosyl-1-monophosphoryl-(poly-cis, di-trans, α-unsaturated) heptaprenol], the “CD8-1 response to antigen” value [1] is reported as “responded significantly”.

In the case of CC(C)=CCCC(C)=CCCC(C)=CCCC(C)=CCCC(C)=CCCC(C)=CCCC(C)=CCCC(C)=CCCC(C)=CCCC(C)=CCCC(C)=CCCC(C)=CCCC(C)=CCCC(C)=CCCC(C)=CCCC(C)=CCCC(C)=CCCC(C)=CCCC(C)CCOP(=O)(O)O[C@@H]1O[C@H](CO)[C@@H](O)[C@H](O)[C@@H]1O (relative stereo) [β-D-mannopyranosyl-1-monophosphoryl-(poly-cis, di-trans, α-saturated) nondecaprenol], the “CD8-1 response to antigen” value [1] is reported as “responded significantly”.

With CCCCCCCCCCCCCCCCCCCCCCCCCCCCCC(=O)OC[C@H]1OC(O)[C@H](O)[C@@H](O)[C@@H]1O (stereo partly drawn) [G6T, Glucose-6-o-triacontanoate] the “binding to CD1b” value ([2]; pH not given) was “did not bind to CD1b”.

With CCCCCCCCCCCCCC(O)CC(=O)OC[C@@H](O)[C@@H](O)[C@H](O)[C@@H](O)C=O (stereo partly drawn) [glucose 6-O-3-hydroxypalmitate] the “LDN5 proliferative response to antigen” value [3, 11] was “did not respond”.

With galactose monomycolate the “LDN5 proliferative response to antigen” value [3] was “responded very weakly or not at all”.

In the case of glucose monomycolate [GMM], the “LDN5 proliferative response to antigen” value [3] is reported as “stimulated LDN5; also recorded: proliferated at similar doses”, the “T cell recognition after treating APCs with fixing or endosome pH neutralizing agents” value [4] is reported as “blocked by agents that fix APC membranes or neutralized the pH of endosomes” and the “rate of uptake by APCs” value [4] is reported as “taken up by APCs at the same rate”. The “DN1 response to antigen” value [5] was “not to GMM”, the “binding to CD1b at pH 4.0” value ([2]; pH 4.0) was “occurring at pH 4.0” and the “binding to CD1b at pH 7.0” value ([2]; pH 7.0) was “not at pH 7.0”. For the same compound, the “lysis of mock, CD1a or CD1c transfectants by LDN5” value [6] was “not similarly treated mock, CD1a or CD1c transfectants”, the “lysis of CD1b transfected C1R target cells by LDN5” value [7] was “lysed CD1b transfected C1R lymphoblastoid target cells” and the “proliferative response of other T cell lines” value [8] was “not 14 other T cell lines tested”.

With mannose monomycolate the “LDN5 proliferative response to antigen” value [3] was “responded very weakly or not at all”.

In the case of mannosyl phosphodolichol [MPD], the “stimulation of CD1a, CD1b and MHC class I restricted T cell lines” value [9] is reported as “did not stimulate”, the “recognition by two other CD1c-restricted T cell lines” value [10] is reported as “recognized MPD” and the “CD8-1 response to antigen” value [1] is reported as “recognized the 2,3 dihydro analog, mannosyl phosphodolichol (MPD), at much lower concentration”.

mannosyl phosphoheptaprenol [MPP] was tested, and the “CD8-1 response to antigen” value [1] was “did respond to the pure MPP”.

With “trehalose dimycolate [TDM, reference compound]” the “cleavage by APCs to antigenic free mycolates or GMM” value [4] was “unable to cleave”.

For “α,α trehalose dimycolate [purified cord factors from M. phlei, reference compound]”, the “LDN5 proliferative response to antigen” value [3, 11] was “not antigenic for LDN5”.
